Laboratory results from ChEMBL document CHEMBL4808216, “Gut-Restricted Selective Cyclooxygenase-2 (COX-2) Inhibitors for Chemoprevention of Colorectal Cancer” (J Med Chem, 2021).
Values after ≈ are worked out from the molar mass of the structure shown. Active and inactive are the calls of the source. No cut-off for these calls is given here.

Legend:
[1] = Protein binding in human colon assessed as unbound fraction; format: ADME, tissue-based
Mus musculus [2] = assay: Antitumor activity in C57BL/6J mouse model of spontaneous GI-tract tumor Apc-min assessed as reduction in total ileum polyp area at 300 mg/kg, po administered as suspension for 10 to 12 weeks; format: functional; conditions: time 10-12 weeks, read-out: TGI
[3] = molecular target: T1, Prostaglandin G/H synthase 2 (Homo sapiens, UniProt P35354); assay: Inhibition of human recombinant COX-2 using arachidonic acid as substrate preincubated for 60 mins followed by substrate addition for 2 secs by ADPH based fluorometric analysis
T1 sequence (P35354 whole entry): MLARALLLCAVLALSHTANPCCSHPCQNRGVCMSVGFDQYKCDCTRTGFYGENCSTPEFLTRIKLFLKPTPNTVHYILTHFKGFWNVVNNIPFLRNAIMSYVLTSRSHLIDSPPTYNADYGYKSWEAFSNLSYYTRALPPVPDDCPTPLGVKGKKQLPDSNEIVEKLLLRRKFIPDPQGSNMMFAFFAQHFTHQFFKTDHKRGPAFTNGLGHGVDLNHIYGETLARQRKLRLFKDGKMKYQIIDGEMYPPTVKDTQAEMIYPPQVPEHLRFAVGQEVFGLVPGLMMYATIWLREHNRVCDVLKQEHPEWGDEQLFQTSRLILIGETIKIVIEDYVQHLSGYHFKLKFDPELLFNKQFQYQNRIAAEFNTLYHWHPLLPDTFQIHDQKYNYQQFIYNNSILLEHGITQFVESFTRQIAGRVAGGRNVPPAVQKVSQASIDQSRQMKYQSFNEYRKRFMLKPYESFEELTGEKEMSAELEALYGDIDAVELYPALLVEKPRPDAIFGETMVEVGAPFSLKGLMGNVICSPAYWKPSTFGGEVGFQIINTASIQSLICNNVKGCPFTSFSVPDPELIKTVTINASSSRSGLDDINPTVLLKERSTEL

[4] = molecular target: T2, Prostaglandin G/H synthase 1 (Homo sapiens, UniProt P23219); assay: Inhibition of COX1 (unknown origin) expressed in HEK293 TRex cells assessed as reduction in PGE2 production using arachidonic acid as substrate preincubated for 60 mins followed by substrate addition for 1 hr in presence of 10% FBS by RapidFire High-Throughput Mass Spectrometry; format: ADME, cell-based, HEK293-T-REx
[5] = Equilibrium solubility of compound in FASSIF at pH 6.5; format: physicochemical
[6] = molecular target: T3, Prostaglandin G/H synthase 2 (Mus musculus, UniProt Q05769); assay: In vivo inhibition of COX2 in po dosed C57BL/6J mouse model of spontaneous GI-tract tumor Apc-min assessed as chemopreventive effect by measuring reduction in polyp area and relevant plasma exposures; format: functional, organism-based
T3 sequence (Q05769 whole entry): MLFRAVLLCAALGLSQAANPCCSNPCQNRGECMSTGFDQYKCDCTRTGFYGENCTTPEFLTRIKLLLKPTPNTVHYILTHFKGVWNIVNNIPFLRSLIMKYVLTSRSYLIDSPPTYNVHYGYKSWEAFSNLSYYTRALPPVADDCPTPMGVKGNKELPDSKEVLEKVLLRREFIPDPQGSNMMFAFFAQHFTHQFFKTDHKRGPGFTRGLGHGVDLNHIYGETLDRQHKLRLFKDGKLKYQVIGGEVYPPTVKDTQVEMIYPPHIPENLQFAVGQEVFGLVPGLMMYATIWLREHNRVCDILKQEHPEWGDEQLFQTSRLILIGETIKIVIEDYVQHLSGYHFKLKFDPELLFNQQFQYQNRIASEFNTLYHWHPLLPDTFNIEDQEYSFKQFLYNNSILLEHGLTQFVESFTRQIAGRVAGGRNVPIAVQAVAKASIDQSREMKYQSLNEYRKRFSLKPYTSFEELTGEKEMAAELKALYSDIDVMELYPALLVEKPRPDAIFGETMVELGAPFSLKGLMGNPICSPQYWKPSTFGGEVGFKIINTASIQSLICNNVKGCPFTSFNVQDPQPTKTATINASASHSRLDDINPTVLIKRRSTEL

Mus musculus [7] = assay: Antitumor activity in C57BL/6J mouse model of spontaneous GI-tract tumor Apc-min assessed as reduction in total ileum polyp number at 30 to 300 mg/kg, po administered as suspension for 10 weeks; format: functional, organism-based; conditions: dose 30-300 mg/kg
[8] = Protein binding in human plasma assessed as unbound fraction; format: ADME, cell-free
[9] = Ratio of drug concentration in C57BL/6J mouse colon to plasma at 10 mg/kg, po measured after 4 hr by liquid chromatographic triple-quadrupole mass spectrometric method; format: ADME, organism-based; conditions: for Ratio: other tissue, 10 mg/kg, 4 h
[10] = Drug concentration in C57BL/6J mouse plasma at 10 mg/kg, po administered as cassette dose measured at 4 hrs by LC/MS/MS analysis; format: ADME, organism-based
Mus musculus [11] = assay: Antitumor activity in C57BL/6J mouse model of spontaneous GI-tract tumor Apc-min assessed as reduction in total ileum polyp area at 30 to 300 mg/kg, po administered as suspension for 10 weeks; format: functional, organism-based; conditions: dose 30-300 mg/kg
[12] = molecular target: T4, Prostaglandin G/H synthase 2 (Homo sapiens) (UniProt P35354)
T4 sequence (whole entry): T1 sequence (P35354 whole entry)
Description: Protein occupancy at human recombinant COX-2 assessed as dissociation half life

[13] = molecular target: T1, Prostaglandin G/H synthase 2; assay: Inhibition of human recombinant COX-2 assessed as reduction in peroxidase activity using arachidonic acid as substrate preincubated for 60 mins followed by substrate addition for 2 secs by ADPH based fluorometric analysis
[14] = molecular target: T1, Prostaglandin G/H synthase 2; assay: Inhibition of COX2 (unknown origin) expressed in HEK293 TRex cells assessed as reduction in PGE2 production using arachidonic acid as substrate preincubated for 60 mins followed by substrate addition for 1 hr in presence of 10% FBS by RapidFire High-Throughput Mass Spectrometry; format: cell-based, HEK293-T-REx
Homo sapiens = species: Homo sapiens; assay: Selectivity ratio of IC50 for COX1 in human whole blood assessed as reduction in calcium ionophore-stimulated TXB2 production to IC50 for COX2 in human whole blood assessed as reduction in LPS stimulated PGE2 production; format: tissue-based
[15] = molecular target: T2, Prostaglandin G/H synthase 1; assay: Inhibition of human recombinant COX-1 assessed as reduction in peroxidase activity using arachidonic acid as substrate preincubated for 60 mins followed by substrate addition for 2 secs by ADPH based fluorometric analysis; format: ADME
Mus musculus [16] = assay: Antitumor activity in C57BL/6J mouse model of spontaneous GI-tract tumor Apc-min assessed as mouse survival at 100 mg/kg, po administered daily as suspension and measured at day 82 by Kaplan-Meier method; format: functional
[17] = molecular target: T2, Prostaglandin G/H synthase 1; assay: Inhibition of COX1 in human whole blood assessed as reduction in calcium ionophore-stimulated TXB2 production incubated for 1 hr by ELISA; format: tissue-based
in vivo = conditions: C57BL/6J, mouse, colon / portal vein plasma, po, 10 mg/kg
Description: Ratio of drug concentration in C57BL/6J mouse colon to portal vein plasma at 10 mg/kg, po measured after 4 hr by liquid chromatographic triple-quadrupole mass spectrometric method

[18] = Drug concentration in C57BL/6J mouse portal vein plasma at 10 mg/kg, po administered as cassette dose measured at 4 hrs by LC/MS/MS analysis; format: ADME, organism-based
[19] = Drug concentration in C57BL/6J mouse colon at 10 mg/kg, po administered as cassette dose measured at 4 hrs by LC/MS/MS analysis; format: ADME, organism-based; conditions: read-out: Ct
[20] = molecular target: T3, Prostaglandin G/H synthase 2; assay: In vivo inhibition of COX2 in po dosed C57BL/6J mouse model of spontaneous GI-tract tumor Apc-min assessed as chemopreventive effect by measuring reduction in polyp area and relevant ileum exposures; format: functional, organism-based
[21] = molecular target: T1, Prostaglandin G/H synthase 2; assay: Inhibition of COX2 in human whole blood assessed as reduction in LPS stimulated PGE2 production incubated for 1 hr by ELISA; format: tissue-based
HEK293 = assay: Selectivity ratio of IC50 for COX1 (unknown origin) expressed in HEK293 TRex cells assessed as reduction in PGE2 production to IC50 for COX2 (unknown origin) expressed in HEK293 TRex cells assessed as reduction in PGE2 production; format: cell-based; conditions: Homo sapiens
[22] = Half life in human hepatocytes; format: ADME, cell-based, Hepatocyte
[23] = Oral bioavailability in C57BL/6J mouse at 10 mg/kg measured up to 24 hrs by LC-MS analysis; format: ADME, organism-based; conditions: in vivo
[24] = Oral bioavailability in dog at 10 mg/kg measured up to 24 hrs by LC-MS analysis; format: ADME, organism-based, Canis lupus familiaris; conditions: in vivo
[25] = Half life in C57BL/6J mouse at 2 mg/kg, iv measured after 0.08 to 24 hrs; format: ADME, organism-based; conditions: in vivo, 2 mg/kg, time 0.08-24 hrs
[26] = Oral bioavailability in Cynomolgus monkey at 10 mg/kg measured up to 24 hrs by LC-MS analysis; format: ADME, organism-based, Macaca fascicularis; conditions: in vivo
[27] = Drug metabolism in human hepatocytes assessed as metabolic turnover at 10 uM incubated up to 2 hrs by LC/MS-MS analysis; format: ADME, cell-based, Hepatocyte; conditions: read-out: Drug metabolism
Mus musculus [28] = assay: Chemo-protective activity in C57BL/6J mouse model of spontaneous GI-tract tumor Apc-min assessed as 18F-FDG uptake in ileum at 300 mg/kg, po incorporated into chow diet administered daily for 2 weeks and measured after 14 days by ex vivo PET imaging analysis relative to control; format: functional
[29] = Volume of distribution at steady state in C57BL/6J mouse at 2 mg/kg, iv measured after 0.08 to 24 hrs; format: ADME, organism-based; conditions: in vivo, 2 mg/kg, time 0.08-24 hrs
[30] = Drug metabolism in mouse hepatocytes assessed as metabolic turnover at 10 uM incubated up to 2 hrs by LC/MS-MS analysis; format: ADME, cell-based, Hepatocyte
[31] = Half life in mouse hepatocytes; format: ADME, cell-based, Hepatocyte
[32] = Tmax in C57BL/6J mouse at 10 mg/kg, po administered as cassette dose measured at 4 hrs by liquid chromatographic triple-quadrupole mass spectrometric method; format: ADME, organism-based; conditions: in vivo
[33] = Half life in mouse liver microsomes; format: ADME, Microsome
[34] = Drug concentration in C57BL/6J mouse colon at 10 mg/kg, po administered as cassette dose measured at 2 hrs by liquid chromatographic triple-quadrupole mass spectrometric method; format: ADME, organism-based; conditions: read-out: Ct
[35] = Half life in human liver microsomes; format: ADME, Microsome
[36] = Oral bioavailability in Sprague Dawley rat at 10 mg/kg measured up to 24 hrs by LC-MS analysis; format: ADME, organism-based; conditions: in vivo
Mus musculus [37] = assay: Antitumor activity in C57BL/6J mouse model of spontaneous GI-tract tumor Apc-min assessed as change in ileum polyp size at 30 to 300 mg/kg, po administered as suspension for 10 weeks; format: functional; conditions: dose 30-300 mg/kg

T2 sequence (P23219 whole entry): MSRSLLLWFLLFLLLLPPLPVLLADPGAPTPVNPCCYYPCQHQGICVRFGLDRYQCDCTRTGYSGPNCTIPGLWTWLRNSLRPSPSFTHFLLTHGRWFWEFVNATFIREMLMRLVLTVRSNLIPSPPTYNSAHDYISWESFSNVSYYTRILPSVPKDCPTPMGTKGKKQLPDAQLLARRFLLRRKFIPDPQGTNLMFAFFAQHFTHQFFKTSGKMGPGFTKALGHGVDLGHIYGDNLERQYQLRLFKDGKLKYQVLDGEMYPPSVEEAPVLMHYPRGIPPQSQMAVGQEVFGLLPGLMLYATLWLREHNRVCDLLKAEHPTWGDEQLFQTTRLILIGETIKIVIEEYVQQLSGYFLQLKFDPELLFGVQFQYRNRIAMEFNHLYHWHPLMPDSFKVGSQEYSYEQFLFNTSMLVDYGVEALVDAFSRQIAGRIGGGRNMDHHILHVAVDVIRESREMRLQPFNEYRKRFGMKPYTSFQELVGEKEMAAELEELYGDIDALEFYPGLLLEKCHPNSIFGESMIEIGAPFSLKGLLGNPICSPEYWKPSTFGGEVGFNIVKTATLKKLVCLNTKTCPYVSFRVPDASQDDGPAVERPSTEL

| SMILES | fraction unbound [1] | inhibition in vivo at 300 mg/kg (Mus musculus [2]) [%] | Ki [3] [nM] | IC50 [4] [nM] | solubility thermodynamic [5] [µM] | IC50 [6] [nM] | Activity (Mus musculus [7]) | fraction unbound [8] | Ratio [9] | concentration at 4 h [10] [ng/mL] | Activity (Mus musculus [11]) | T1/2 [12] [min] | IC50 [13] [nM] | IC50 [14] [nM] | IC50 [15] [nM] | IC50 [17] [nM] | Kp at 4 h (in vivo) | concentration at 4 h [18] [ng/mL] | concentration at 4 h [19] [ng/g] | IC50 [21] [nM] | also measured |
| --- | --- | --- | --- | --- | --- | --- | --- | --- | --- | --- | --- | --- | --- | --- | --- | --- | --- | --- | --- | --- | --- |
| CC(C)(O)COc1nc(OCCCC(F)(F)F)c(CO)cc1-c1ccc(S(C)(=O)=O)cc1 | 0.204 | 39.8 | 12 | 21800 | 111 (≈ 52.8 µg/mL) | 1.9 | Active | 0.011 | 4473 | 3.8 | Active | 1620 | 360 | 78 | > 50000 | > 180000 | 77 | 230 | 16000 | 345 | Ratio (Homo sapiens): > 200; Survival (Mus musculus [16]): 62.5 days; IC50 [20]: 160 nM |
| CCCCOc1nc(OCC(C)(C)O)c(-c2ccc(S(C)(=O)=O)cc2)cc1CO | 0.025 | 35.1 | 12 | 14100 | 66.5 (≈ 28.2 µg/mL) | – | – | 0.009 | – | 3 | – | 1080 | 226 | 47 | > 50000 | > 180000 | 29.7 | 24.8 | 4350 | 346 | Ratio IC50 (HEK293): 300; half-life [22]: 2.4 min; bioavailability [23]: 4.25%; bioavailability [24]: 74%; t1/2 [25]: 13.8 min; bioavailability [26]: 4.87%; metabolised at 2 h, 10 µM [27]: 100%; Kp at 4 h ([9]; C57BL/6J, colon / plasma): 1620; Activity (Mus musculus [28]): 48.9%; Vdss [29]: 4.92 L/kg; Drug metabolism [30]: 79.6%; t1/2 [31]: 1.9 min; Ratio IC50 (Homo sapiens): > 200; Tmax [32]: 15 min; half-life [33]: 2.7 min; concentration at 2 h [34]: 6510 ng/g; half-life [35]: 27.8 min; bioavailability [36]: 1.5% |
| CC(C)(O)COc1nc(OCCC(F)(F)F)c(CO)cc1-c1ccc(S(C)(=O)=O)cc1 | 0.224 | 48.7 | 32 | 130 | 44.4 (≈ 20.6 µg/mL) | 1.3 | Active | 0.01 | 5264 | 3.4 | Active | 1320 | 500 | 130 | > 50000 | 181000 | 101 | 179 | 15500 | 877 | Activity (Mus musculus [28]): 48.6%; Ratio IC50 (Homo sapiens): > 200; Survival (Mus musculus [16]): 74 days; Activity (Mus musculus [37]): >2 mm; IC50 [20]: 742 nM |
